Reference: patent US8900851B2, “Multi-well platform” (The Research Foundation for the State University of New York, priority 2008, dated 2014)

Experiments:
C43 [1] = assay: Northern blot analysis of C43 in HT1080 cells; type: cell-based, human; settings: FIG. 11A
Text: Total RNAs of MCF-7 cells, HT1080 or HT1080 cells treated with Con A were probed with p^32-labeled C43 probe. A single 9.5 kb mRNA transcript corresponding to C43 was detected (arrowhead). Con A enhances C43 expression in HT1080 cells. B) Expression of C43 in transfected COS-1 cells: COS-1 cells transfected with vector or C43-Myc chimera were examined by Western blotting using anti-Myc antibody. C43 was detected as a 150 kDa protein band along with degradation products.

C43 [2] = assay: shRNA effect on endogenous C43 expression, real time RT PCR in MDA-MB-435 cells; type: cell-based, human; settings: retroviral shRNA delivery
Protocol: A) Overexpresison of C43 enhanced cell migration. COS-1 cells and MCF-7 cells transfected with vector control (1 & 4), C43 (2 & 5) or MT1-MMP (3 & 6, positive control) cDNAs were evaluated by a Transwell Chamber migration assay after 6 hours. The cells were fixed and migratory cells were counted under microscopy with 20× objective. Ten fields were examined for each transfected cells. Each bar represents the mean±SE. B) Enhanced cell migration in MCF-7 cells expressing C43-GFP chimera. Minimally invasive human breast cancer MCF-7 cells stably transfected with GFP control and C43-GFP chimeric cDNA were mixed with type I collagen and dotted onto a 96-well plate. […] Cell migration was determined under microscopy. […]
Small interfering oligonucleotides specific for either C43 or luciferase (control) to express short hairpin RNA (shRNA) were designed using an online software system (Block-iT RNAi Designer; Invitrogen) for mammalian RNA interference. Specific 21-nucleotide sequences spanning nucleotides […] of the human C43 gene (see FIG. 2: SEQ ID NO: 1) and nucleotides 103-123 of luciferase from firefly Pyrocoelia pectoralis as a control were synthesized by Operon Biotechnologies, Inc. Annealed double stranded oligonucleotides were cloned into the RNAi-Ready pSIREN-Retra Q vector (Clontech). […]

MDA-MB-435 cells [3] = assay: cell morphology of MDA-MB-435 cells expressing shRNA (DIC microscopy); type: cell-based, human; settings: MDA-MB-435 cells cultured on plastic dishes
Text: (§1) Left panel: Loss of invasive ability of MDA-MB-435 cells by downregulation of C43. MDA-MB-435 cells expressing Luciferase shRNA control, C43 shRNA-2 and -3 were examined by the 3D invasion assay after 8 days. […] MDA-MB-435 cells expressing Luciferase shRNA shRNA, C43 shRNA-2 and -3 cultured on plastic dishes were observed under inverted microscopy with differential interference contrast (DIC).

MDA-MB-435 cells [4] = assay: 3D invasion assay, MDA-MB-435 cells expressing shRNA; type: cell-based, human; settings: 3D invasion assay after 8 days, vs Luciferase shRNA control
Text: as §1
The following methodology permits the detection of cancer cell invasion into a collagen matrix and the inhibitory activity of anti-cancer drugs. This assay is useful in identifying pharmacologic agents (drugs) that interfere with cancer progression. […] Invading cancer cells leaving the perimeter of the original collagen droplet are readily visualized extending into the surrounding collagen matrix after 18 h incubation. Both qualitative and quantitative analyses are performed microscopically. The invasive ability of cancer cells (cells outside the original droplet), as well as the effect of pharmacologic agents on the cancer cell invasion, can be determined microscopically. The effect of pharmacologic agents on invasion of cancer cells is determined by counting invading cells in the presence versus the absence of pharmacologic agents. […] This assay will be readily adaptable for high throughput screening of libraries of compounds that may be useful for cancer treatment. […]

MDA-MB-435 cells [5] = assay: cell proliferation of MDA-MB-435 cells expressing shRNA; type: cell-based, human; settings: MDA-MB-435 cells in culture
Text: as §1
(§2) As summarized in FIG. 1, 2×10^6 MDA-MB-435 cancer cells expressing either C43 shRNA or luciferase shRNA control were orthotopically injected into mammary tissue of nu/nu immunodeficient mice. Tumor growth was measured with calipers twice a week. Tumor size was determined using the formula: (tumor size=tumor diameter(×)square root of tumor diameter(÷)2). […] In contrast to in vivo tumor growth, downregulation of C43 had no effect on cancer MDA-MB-435 cell proliferation in tissue culture (not shown), emphasizing the unique role of C43 on protease-independent aspects of cell invasion and tumor progression.

MDA-MB-435 cancer cells = assay: orthotopic implantation of MDA-MB-435 cells expressing shRNA into immunodeficient mice; type: in vivo, nu/nu immunodeficient mice
Text: FIG. 1 depicts tumor growth and survival curves comparing the effect of C43 shRNA (SEQ ID NO: 2) (FIG. 1A) and control luciferase shRNA (FIG. 1B) on tumor appearance, progression, and survival following orthotopic implantation of MDA-MB-435 breast cancer cells into immunodeficient mice.
as §2

C43 [6] = assay: C43 expression by real time RT PCR in MCF-7 cells; type: cell-based, human; settings: MCF-7 cells treated vs untreated, FIG. 17A
Protocol: (§3) MCF-7 cells were left untreated or treated with an inhibitor of DNA methyltransferase, […] (5-aza-dC). Expression of C43 was monitored by a real time RT PCR approach and cell migration ability was determined by a transwell chamber migration assay.

MCF-7 cells = assay: transwell chamber migration assay, MCF-7 cells; type: cell-based, human; settings: FIG. 17B
Protocol: as §3

MDA-MB-231 cells = assay: transwell chamber migration assay, MDA-MB-231 cells; type: cell-based, human
C43 [7] = assay: C43 expression by real time RT PCR in MDA-MB-231 cells; type: cell-based, human
[8] = test system: HT1080 and/or human breast cancer MDA-MB-231 cell; assay: 3D invasion assay, positive controls; type: cell-based; settings: positive controls in culture medium, HT1080 and/or MDA-MB-231 cells
Protocol: HT1080 cells and/or human breast cancer MDA-MB-231 cells (4×10^7/ml) mixed with type I collagen (1.5 mg/ml at final) are dispensed into the cell-holding wells in invasion assay plates (2 ul/well, optimum volume) using the liquid handling system at 4° C. working temperature to prevent the collagen from solidifying within the liquid handling system. After dotting, the plate is inserted in an incubator chamber at 37° C. for 15 min followed by the addition of type I collagen to cover the gelled cell aggregates. […] Images are acquired from transmission (phase contrast) and fluorescence (DAPI) sources by an external light shutter device that gathers two images per time point in time-lapse sequences. […] Data analysis will be performed using NIS-Element imaging software (Nikon) based on pre-determined criteria.
The following steps will be performed to screen the compound library targeting cancer cell migration/invasion using the automated 3D invasion HTS system: 1) Cell plating: HT1080 cells and/or human breast cancer MDA-MB-231 cells are used for selecting inhibitory compounds because these cells display invasive ability and represent mesenchymal cancer cells. […] Images acquired by an automated Nikon inverted microscope (TE2000s) equipped with a motorized stage (Prior Scientific) are then analyzed using the NIS-Elements software (Nikon). […]

[9] = test system: human breast cancer MDA-MB-231 cells; assay: 3D invasion assay with well-established inhibitory compounds; type: cell-based; settings: data not shown
Text: To increase the throughput as well as to standardize and automate the readout using imaging software, we have designed and tooled a 96-well plate with a 2.1 mm3 pit in the center of each well. This tooled plate restricts the cell/matrix mixture to an identical pit (size and location) within each well, thus permitting automated microscopic imaging of cell invasion (FIG. 19). To test if imaging acquisition and data analysis can be automated, we have employed a motorized stage (Prior Scientific, Inc.) installed on the existing Nikon TE2000s inverted microscope. The automated microscopy system is controlled by the NIS-Elements imaging software (Nikon) for imaging acquisition and data analysis. Using a 10× objective, we have shown that it takes 6 minutes to scan the entire 96 well plate. To quantitatively analyze cells that invade into the matrix, using both phase contrast and nuclear-stained images is optimal.
To establish the efficacy of the assay for screening libraries, we have tested the effect of well-established inhibitory compounds on cell invasion. […] Moreover, this 3D invasion assay is simple, precise, easy to replicate, and has multiple applications.

Concanavalin A [Con A]
C43 expression (C43 [1]): enhances

C43 shRNA-2: C43 shRNA sequence GTGGAAGACCATATTGAATAT, nt 1104
endogenous C43 expression (C43 [2]): significantly decrease
cell morphology (MDA-MB-435 cells [3]): Change of cell morphology
cell invasive ability (MDA-MB-435 cells [4]): loss of cell invasive ability
cell proliferation (MDA-MB-435 cells [5]): does not alter

C43 shRNA: 21-nucleotide C43 shRNA CCTCTCCATCCATCATACATT spanning nucleotides 1735-1757 of SEQ ID NO: 1 (chemistry not given here; listed as Homo sapiens)
tumor appearance and progression (MDA-MB-435 cancer cells; 2×10^6 MDA-MB-435 cells orthotopically injected into mammary tissue, vs luciferase shRNA control, FIG. 1A): delayed
survival (MDA-MB-435 cancer cells; orthotopic MDA-MB-435, vs luciferase shRNA control mice, FIG. 1B): prolonged
cell proliferation (MDA-MB-435 cells [5]): no effect

C43 shRNA-3: C43 shRNA sequence GCCTCTCCATCCATCATACATT, nt 1997
endogenous C43 expression (C43 [2]): significantly decrease
cell morphology (MDA-MB-435 cells [3]): Change of cell morphology
cell invasive ability (MDA-MB-435 cells [4]): loss of cell invasive ability
cell proliferation (MDA-MB-435 cells [5]): does not alter

Nc1ncn([C@H]2C[C@H](O)[C@@H](CO)O2)c(=O)n1 [5-aza-dC, a-aza-deoxycytined]
endogenous C43 expression (C43 [6]): increased
cell migration (MCF-7 cells): enhanced
cell migration (MDA-MB-231 cells): No effect
C43 expression (C43 [7]): No effect

COc1cccc(-c2cc(=O)c3ccccc3o2)c1N [PD98059]
cell invasion [8]: block
inhibition of cell invasion [9]: dose-dependent inhibition
